In ChEMBL document CHEMBL5356971, “Optimization of the Antibacterial Spectrum and the Developability Profile of the Novel-Class Natural Product Corramycin” (J Med Chem, 2023):

Columns and labels:
Escherichia coli [1] = assay: Antibacterial activity against Escherichia coli ATCC 35218 assessed as reduction in microbial growth incubated for 20 to 22 hrs by CLSI based analysis; assay type: functional; settings: time 20-22 hrs
[2] = Metabolic stability in mouse kidney assessed as parent compound remaining measured after 4 hrs by UPLC-MS analysis; assay type: ADME, tissue-based; settings: read-out: Stability
[3] = Metabolic stability in mouse lung assessed as parent compound remaining measured after 4 hrs by UPLC-MS analysis; assay type: ADME, tissue-based; settings: mouse lung, read-out: Stability
[4] = Metabolic stability in mouse lung assessed as parent compound remaining measured after 1 hrs by UPLC-MS analysis; assay type: ADME, tissue-based; settings: mouse lung, read-out: Stability
[5] = Metabolic stability in mouse kidney assessed as parent compound remaining measured after 1 hrs by UPLC-MS analysis; assay type: ADME, tissue-based; settings: read-out: Stability
Escherichia coli [6] = assay: Antibacterial activity against wild type Escherichia coli ATCC 35218 assessed as reduction in microbial growth incubated for 20 to 22 hrs by CLSI based analysis; assay type: functional; settings: time 20-22 hrs
Escherichia coli [7] = assay: Antibacterial activity against Escherichia coli ATCC 35218 harboring SbmA assessed as reduction in microbial growth incubated for 20 to 22 hrs by CLSI based analysis; assay type: functional; settings: time 20-22 hrs
Klebsiella pneumoniae [8] = assay: Antibacterial activity against wild type Klebsiella pneumoniae ATCC 13883 assessed as reduction in microbial growth incubated for 20 to 22 hrs by CLSI based analysis; assay type: functional; settings: time 20-22 hrs
Klebsiella pneumoniae [9] = assay: Antibacterial activity against Klebsiella pneumoniae ATCC 13883 harboring SbmA assessed as reduction in microbial growth incubated for 20 to 22 hrs by CLSI based analysis; assay type: functional; settings: time 20-22 hrs
Acinetobacter baumannii [10] = assay: Antibacterial activity against wild type Acinetobacter baumannii ATCC 19606 assessed as reduction in microbial growth incubated for 20 to 22 hrs by CLSI based analysis; assay type: functional; settings: time 20-22 hrs
Klebsiella pneumoniae [11] = assay: Antibacterial activity against Klebsiella pneumoniae ATCC 13883 assessed as reduction in microbial growth incubated for 20 to 22 hrs by CLSI based analysis; assay type: functional; settings: time 20-22 hrs
Acinetobacter baumannii [12] = assay: Antibacterial activity against Acinetobacter baumannii ATCC 19606 assessed as reduction in microbial growth incubated for 20 to 22 hrs by CLSI based analysis; assay type: functional; settings: time 20-22 hrs

CO[C@@H](CNC(=O)[C@H](NC(=O)[C@H](O)[C@H](C)O)[C@H](O)c1cncn1C)[C@H](O)[C@H](O)C(=O)N(C)[C@@H](Cc1ccccc1)C(=O)NCC(=O)N[C@H](C(=O)N[C@@H](CO)C(=O)N[C@H](C(=O)O)C(C)(C)O)C(C)(C)O
MIC (Escherichia coli [1]): > 64 µg/mL

CO[C@@H](CNC(=O)[C@H](NC(=O)[C@H](O)[C@H](C)O)[C@H](O)c1cncn1C)[C@H](O)[C@H](O)C(=O)N(C)[C@@H](Cc1ccccc1)C(=O)NCC(=O)N[C@H](C(=O)N[C@@H](CO)C(=O)N[C@H](C(=O)N[C@@H](CC(C)C)C(=O)O)C(C)(C)O)C(C)(C)O
MIC (Escherichia coli [1]): 32 µg/mL

CO[C@@H](CNC(=O)[C@H](NC(=O)[C@H](O)[C@H](C)O)[C@H](O)c1cncn1C)[C@H](O)[C@H](O)C(=O)N(C)[C@@H](Cc1ccccc1)C(=O)N[C@@H](C)C(=O)N[C@H](C(=O)N[C@@H](CO)C(=O)N[C@H](C(=O)N[C@H](C(=O)N[C@@H](CO)C(=O)NCc1cc(=O)c(O)cn1O)C(C)(C)C)C(C)(C)O)C(C)(C)O
remaining at 4 h [2]: 75%
remaining at 4 h [3]: 85%
remaining at 1 h [4]: 91%
remaining at 1 h [5]: 85%
MIC (Escherichia coli [6]): 0.06 µg/mL
MIC (Escherichia coli [7]): 1 µg/mL
MIC (Klebsiella pneumoniae [8]): 1 µg/mL
MIC (Klebsiella pneumoniae [9]): > 32 µg/mL
MIC (Acinetobacter baumannii [10]): 1 µg/mL

CO[C@@H](CNC(=O)[C@H](NC(=O)[C@H](O)[C@H](C)O)[C@H](O)c1cncn1C)[C@H](O)[C@H](O)C(=O)N(C)[C@@H](Cc1ccccc1)C(=O)O
MIC (Escherichia coli [1]): > 64 µg/mL

CO[C@@H](CNC(=O)[C@H](NC(=O)[C@H](O)[C@H](C)O)[C@H](O)c1cncn1C)[C@H](O)[C@H](O)C(=O)N(C)[C@@H](Cc1ccccc1)C(=O)NCC(=O)N[C@@H](C)C(=O)N[C@@H](CO)C(=O)N[C@H](C(=O)N[C@@H](CC(C)C)C(=O)N[C@@H](CO)C(=O)O)C(C)(C)O
MIC (Escherichia coli [1]): > 32 µg/mL
MIC (Klebsiella pneumoniae [11]): > 32 µg/mL
MIC (Acinetobacter baumannii [12]): > 32 µg/mL

CO[C@@H](CNC(=O)[C@H](NC(=O)[C@H](O)[C@H](C)O)[C@H](O)c1cncn1C)[C@H](O)[C@H](O)C(=O)N(C)[C@@H](Cc1ccc(F)cc1)C(=O)NCC(=O)N[C@H](C(=O)N[C@@H](CO)C(=O)N[C@H](C(=O)N[C@H](C(=O)N[C@@H](CCC(=O)NCc1cc(=O)c(O)cn1O)C(=O)O)C(C)(C)C)C(C)(C)O)C(C)(C)O
remaining at 4 h [2]: 101%
remaining at 4 h [3]: 86%
remaining at 1 h [4]: 101%
remaining at 1 h [5]: 92%
MIC (Escherichia coli [6]): 0.01 µg/mL
MIC (Escherichia coli [7]): 0.25 µg/mL
MIC (Klebsiella pneumoniae [8]): 0.12 µg/mL
MIC (Klebsiella pneumoniae [9]): > 32 µg/mL
MIC (Acinetobacter baumannii [10]): 0.25 µg/mL

CO[C@@H](CNC(=O)[C@H](NC(=O)[C@H](O)[C@H](C)O)[C@H](O)c1cncn1C)[C@H](O)[C@H](O)C(=O)N(C)[C@@H](Cc1ccccc1)C(=O)NCC(=O)N[C@H](C(=O)N[C@@H](CO)C(=O)N[C@H](C(=O)N[C@@H](C)C(=O)N[C@@H](CO)C(=O)O)C(C)(C)O)C(C)(C)O
MIC (Escherichia coli [1]): 8 µg/mL
MIC (Klebsiella pneumoniae [11]): 64 µg/mL
MIC (Acinetobacter baumannii [12]): > 32 µg/mL

CO[C@@H](CNC(=O)[C@H](NC(=O)[C@H](O)[C@H](C)O)[C@H](O)c1cncn1C)[C@H](O)[C@H](O)C(=O)N(C)[C@@H](Cc1ccc(F)cc1)C(=O)NCC(=O)N[C@H](C(=O)N[C@@H](CO)C(=O)N[C@H](C(=O)N[C@H](C(=O)N[C@@H](CO)C(=O)NCc1ccc(O)c(O)c1)C(C)(C)C)C(C)(C)O)C(C)(C)O
remaining at 4 h [2]: 0%
remaining at 4 h [3]: 0%
remaining at 1 h [4]: 0%
remaining at 1 h [5]: 6%
MIC (Escherichia coli [6]): 0.03 µg/mL
MIC (Klebsiella pneumoniae [8]): 0.25 µg/mL
MIC (Acinetobacter baumannii [10]): 0.5 µg/mL

CO[C@@H](CNC(=O)[C@H](NC(=O)[C@H](O)[C@H](C)O)[C@H](O)c1cncn1C)[C@H](O)[C@H](O)C(=O)N(C)[C@@H](Cc1ccccc1)C(=O)NCC(=O)N[C@H](C(=O)N[C@@H](CO)C(=O)N[C@H](C(=O)N[C@@H](CC(C)C)C(=O)N[C@@H](CO)C(=O)N[C@@H](CCC(=O)NCc1cc(=O)c(O)cn1O)C(=O)O)C(C)(C)O)C(C)(C)O
remaining at 4 h [2]: 0%
remaining at 4 h [3]: 0%
remaining at 1 h [4]: 1%
remaining at 1 h [5]: 22%
MIC (Escherichia coli [6]): 0.03 µg/mL
MIC (Escherichia coli [7]): 0.12 µg/mL
MIC (Klebsiella pneumoniae [8]): 0.25 µg/mL
MIC (Klebsiella pneumoniae [9]): 8 µg/mL
MIC (Acinetobacter baumannii [10]): 0.5 µg/mL

CO[C@@H](CNC(=O)[C@H](NC(=O)[C@H](O)[C@H](C)O)[C@H](O)c1cncn1C)[C@H](O)[C@H](O)C(=O)N(C)[C@@H](Cc1ccc(F)cc1)C(=O)NCC(=O)N[C@H](C(=O)N[C@@H](CO)C(=O)N[C@H](C(=O)N[C@H](C(=O)N[C@@H](CCC(=O)NCc1cc(=O)c(O)cn1O)C(=O)NCCN)C(C)(C)C)C(C)(C)O)C(C)(C)O
remaining at 4 h [2]: 41%
remaining at 4 h [3]: 75%
remaining at 1 h [4]: 88%
remaining at 1 h [5]: 61%
MIC (Escherichia coli [6]): 0.01 µg/mL
MIC (Escherichia coli [7]): 4 µg/mL
MIC (Klebsiella pneumoniae [8]): 0.12 µg/mL
MIC (Klebsiella pneumoniae [9]): > 32 µg/mL
MIC (Acinetobacter baumannii [10]): 1 µg/mL

CC[C@H](C)[C@H](NC(=O)[C@@H](NC(=O)[C@H](CO)NC(=O)[C@@H](NC(=O)CNC(=O)[C@H](Cc1ccccc1)N(C)C(=O)[C@@H](O)[C@@H](O)[C@H](CNC(=O)[C@H](NC(=O)[C@H](O)[C@H](C)O)[C@H](O)c1cncn1C)OC)C(C)(C)O)C(C)(C)O)C(=O)N[C@@H](CO)C(=O)N[C@@H](CCC(=O)NCc1cc(=O)c(O)cn1O)C(=O)O
remaining at 4 h [2]: 42%
remaining at 4 h [3]: 33%
remaining at 1 h [4]: 73%
remaining at 1 h [5]: 84%
MIC (Escherichia coli [6]): 0.03 µg/mL
MIC (Escherichia coli [7]): 0.25 µg/mL
MIC (Klebsiella pneumoniae [8]): 0.12 µg/mL
MIC (Klebsiella pneumoniae [9]): 32 µg/mL
MIC (Acinetobacter baumannii [10]): 0.5 µg/mL

CO[C@@H](CNC(=O)[C@H](NC(=O)[C@H](O)[C@H](C)O)[C@H](O)c1cncn1C)[C@H](O)[C@H](O)C(=O)N(C)[C@@H](Cc1ccccc1)C(=O)NCC(=O)N[C@H](C(=O)N[C@@H](CO)C(=O)N[C@H](C(=O)N[C@H](C(=O)N[C@@H](CO)C(=O)N[C@@H](CN)C(=O)NCc1cc(=O)c(O)cn1O)C(C)(C)C)C(C)(C)O)C(C)(C)O
remaining at 4 h [2]: 83%
remaining at 4 h [3]: 75%
remaining at 1 h [4]: 87%
remaining at 1 h [5]: 93%
MIC (Escherichia coli [6]): 0.02 µg/mL
MIC (Escherichia coli [7]): 4 µg/mL
MIC (Klebsiella pneumoniae [8]): 0.25 µg/mL
MIC (Klebsiella pneumoniae [9]): > 32 µg/mL
MIC (Acinetobacter baumannii [10]): 0.25 µg/mL

CO[C@@H](CNC(=O)[C@H](NC(=O)[C@H](O)[C@H](C)O)[C@H](O)c1cncn1C)[C@H](O)[C@H](O)C(=O)N(C)[C@@H](Cc1ccccc1)C(=O)NCC(=O)N[C@H](C(=O)N[C@@H](CO)C(=O)N[C@H](C(=O)N[C@H](C(=O)N[C@@H](CO)C(=O)NCc1cc(=O)c(O)cn1O)C(C)(C)C)C(C)(C)O)C(C)(C)O
remaining at 4 h [2]: 84%
remaining at 4 h [3]: 73%
remaining at 1 h [4]: 84%
remaining at 1 h [5]: 99%
MIC (Escherichia coli [6]): < 0.01 µg/mL
MIC (Escherichia coli [7]): 0.5 µg/mL
MIC (Klebsiella pneumoniae [8]): 0.03 µg/mL
MIC (Klebsiella pneumoniae [9]): > 32 µg/mL
MIC (Acinetobacter baumannii [10]): 0.5 µg/mL

CO[C@@H](CNC(=O)[C@H](NC(=O)[C@H](O)[C@H](C)O)[C@H](O)c1cncn1C)[C@H](O)[C@H](O)C(=O)N(C)[C@@H](Cc1ccccc1)C(=O)NCC(=O)N[C@H](C(=O)N[C@@H](CO)C(=O)N[C@H](C(=O)N[C@H](C(=O)N[C@@H](CO)C(=O)N[C@H](CCC(=O)NCc1cc(=O)c(O)cn1O)C(=O)O)C(C)(C)C)C(C)(C)O)C(C)(C)O
remaining at 4 h [2]: 67%
remaining at 4 h [3]: 77%
remaining at 1 h [4]: 89%
remaining at 1 h [5]: 100%
MIC (Escherichia coli [6]): < 0.01 µg/mL
MIC (Escherichia coli [7]): 1 µg/mL
MIC (Klebsiella pneumoniae [8]): 0.03 µg/mL
MIC (Klebsiella pneumoniae [9]): 32 µg/mL
MIC (Acinetobacter baumannii [10]): 0.5 µg/mL

CO[C@@H](CNC(=O)[C@H](NC(=O)[C@H](O)[C@H](C)O)[C@H](O)c1cncn1C)[C@H](O)[C@H](O)C(=O)N(C)[C@@H](Cc1ccccc1)C(=O)NCC(=O)N[C@H](C(=O)N[C@@H](CO)C(=O)O)C(C)(C)O
MIC (Escherichia coli [1]): > 64 µg/mL

CO[C@@H](CNC(=O)[C@H](NC(=O)[C@H](O)[C@H](C)O)[C@H](O)c1cncn1C)[C@H](O)[C@H](O)C(=O)N(C)[C@@H](Cc1ccc(F)cc1)C(=O)NCC(=O)N[C@H](C(=O)N[C@@H](CO)C(=O)N[C@H](C(=O)N[C@H](C(=O)N[C@@H](CO)C(=O)NCc1cccc(O)c1O)C(C)(C)C)C(C)(C)O)C(C)(C)O
remaining at 4 h [2]: 0%
remaining at 4 h [3]: 0%
remaining at 1 h [4]: 0%
remaining at 1 h [5]: 11%
MIC (Escherichia coli [6]): 0.06 µg/mL
MIC (Klebsiella pneumoniae [8]): 0.5 µg/mL
MIC (Acinetobacter baumannii [10]): 0.5 µg/mL
